From ChEMBL document CHEMBL5724914, “Linking interpersonal differences in gut microbiota composition and drug biotransformation activity” (2024)

Assays:
[1] = (§1) The drug is tested on Z-028 corresponding to mouse gut metagenome with ENA study accession number: PRJEB37062 and ENA sample accession number: ERS12561827 for biotransformation under anaerobic condition. The drug concentrations were measured over 9 timepoints collected between 0 and 24 hours of incubation by liquid-chromatography-coupled mass spectrometry (LC–MS); details: 2 µM
[2] = as §1, with “Z-022” for “Z-028”, “ERS12561821” for “ERS12561827”; details: 2 µM
[3] = as §1, with “Z-018” for “Z-028”, “pig” for “mouse”, “ERS12561817” for “ERS12561827”; details: 2 µM
[4] = as §1, with “Z-011” for “Z-028”, “ERS12561811” for “ERS12561827”; details: 2 µM
[5] = as §1, with “Z-007” for “Z-028”, “rat” for “mouse”, “ERS12561807” for “ERS12561827”; details: 2 µM
[6] = as §1, with “Z-004” for “Z-028”, “to” for “to mouse gut”, “ERS12561804” for “ERS12561827”; details: 2 µM
[7] = as §1, with “Z-003” for “Z-028”, “pig” for “mouse”, “ERS12561803” for “ERS12561827”; details: 2 µM
[8] = as §1, with “WLS-220” for “Z-028”, “human” for “mouse”, “ERS12561769” for “ERS12561827”; details: 2 µM
[9] = as §1, with “WLS-170” for “Z-028”, “human” for “mouse”, “ERS12561762” for “ERS12561827”; details: 2 µM
[10] = as §1, with “WLS-086” for “Z-028”, “human” for “mouse”, “ERS12561752” for “ERS12561827”; details: 2 µM
[11] = as §1, with “WLS-069” for “Z-028”, “human” for “mouse”, “ERS12561748” for “ERS12561827”; details: 2 µM
[12] = as §1, with “WLS-027” for “Z-028”, “human” for “mouse”, “ERS12561744” for “ERS12561827”; details: 2 µM
[13] = human gut metagenome, 24 h, 2 µM
[14] = human gut metagenome, 24 h, 2 µM; remark: listed apart in the source
[15] = human gut metagenome, 24 h, 2 µM; remark: listed apart in the source
[16] = human gut metagenome, 24 h, 2 µM; remark: listed apart in the source
[17] = human gut metagenome, 24 h, 2 µM; remark: listed apart in the source
[18] = human gut metagenome, 24 h, 2 µM; remark: listed apart in the source
[19] = human gut metagenome, 24 h, 2 µM; remark: listed apart in the source
[20] = human gut metagenome, 24 h, 2 µM; remark: listed apart in the source
Note: call rule not given here.

| SMILES | Bacterial Biotransformation [1] | Bacterial Biotransformation [2] | Bacterial Biotransformation [3] | Bacterial Biotransformation [4] | Bacterial Biotransformation [5] | Bacterial Biotransformation [6] | Bacterial Biotransformation [7] | Bacterial Biotransformation [8] | Bacterial Biotransformation [9] | Bacterial Biotransformation [10] | Bacterial Biotransformation [11] | Bacterial Biotransformation [12] | Bacterial Biotransformation [13] | Bacterial Biotransformation [14] | Bacterial Biotransformation [15] | Bacterial Biotransformation [16] | Bacterial Biotransformation [17] | Bacterial Biotransformation [18] | Bacterial Biotransformation [19] | Bacterial Biotransformation [20] |
| --- | --- | --- | --- | --- | --- | --- | --- | --- | --- | --- | --- | --- | --- | --- | --- | --- | --- | --- | --- | --- |
| CNS(=O)(=O)Cc1ccc2[nH]cc(CCN(C)C)c2c1.O=C(O)CCC(=O)O [SUMATRIPTAN SUCCINATE] | Compound NOT metabolized | Compound NOT metabolized | Compound NOT metabolized | Compound NOT metabolized | Compound NOT metabolized | Compound NOT metabolized | Compound metabolized | Compound metabolized | Compound NOT metabolized | Compound metabolized | Compound metabolized | Compound NOT metabolized | Compound NOT metabolized | Compound NOT metabolized | Compound NOT metabolized | Compound NOT metabolized | Compound NOT metabolized | Compound metabolized | Compound NOT metabolized | Compound metabolized |
| Nc1c2c(nc3ccccc13)CCCC2 [TACRINE] | Compound NOT metabolized | Compound NOT metabolized | Compound NOT metabolized | Compound NOT metabolized | Compound NOT metabolized | Compound NOT metabolized | Compound NOT metabolized | Compound NOT metabolized | Compound metabolized | Compound metabolized | Compound metabolized | Compound NOT metabolized | Compound NOT metabolized | Compound NOT metabolized | Compound NOT metabolized | Compound NOT metabolized | Compound NOT metabolized | Compound metabolized | Compound NOT metabolized | Compound metabolized |
| Cc1ccc(S(=O)(=O)NC(=O)NN2CCCCCC2)cc1 [TOLAZAMIDE] | Compound metabolized | Compound metabolized | Compound metabolized | Compound NOT metabolized | Compound NOT metabolized | Compound metabolized | Compound metabolized | Compound metabolized | Compound metabolized | Compound metabolized | Compound metabolized | Compound metabolized | Compound metabolized | Compound NOT metabolized | Compound metabolized | Compound metabolized | Compound metabolized | Compound metabolized | Compound NOT metabolized | Compound metabolized |
| CCOC(=O)[C@H](CCc1ccccc1)N[C@@H](C)C(=O)N1[C@H](C(=O)O)C[C@H]2CCCC[C@@H]21 [TRANDOLAPRIL] | Compound NOT metabolized | Compound NOT metabolized | Compound metabolized | Compound NOT metabolized | Compound NOT metabolized | Compound metabolized | Compound metabolized | Compound metabolized | Compound metabolized | Compound metabolized | Compound metabolized | Compound metabolized | Compound NOT metabolized | Compound NOT metabolized | Compound metabolized | Compound metabolized | Compound metabolized | Compound metabolized | Compound metabolized | Compound metabolized |
| CC(CN(C)C)CN1c2ccccc2CCc2ccccc21.O=C(O)/C=C\C(=O)O (stereo not given) [TRIMIPRAMINE MALEATE] | Compound NOT metabolized | Compound NOT metabolized | Compound NOT metabolized | Compound NOT metabolized | Compound NOT metabolized | Compound NOT metabolized | Compound metabolized | Compound metabolized | Compound metabolized | Compound metabolized | Compound metabolized | Compound metabolized | Compound NOT metabolized | Compound metabolized | Compound NOT metabolized | Compound metabolized | Compound metabolized | Compound metabolized | Compound NOT metabolized | Compound metabolized |
| CC(=O)CC(c1ccccc1)c1c(O)c2ccccc2oc1=O (stereo not given) [WARFARIN] | Compound metabolized | Compound metabolized | Compound metabolized | Compound NOT metabolized | Compound NOT metabolized | Compound metabolized | Compound metabolized | Compound metabolized | Compound metabolized | Compound metabolized | Compound metabolized | Compound metabolized | Compound metabolized | Compound NOT metabolized | Compound metabolized | Compound metabolized | Compound metabolized | Compound metabolized | Compound metabolized | Compound metabolized |
| Cc1ccc(-c2nc3ccc(C)cn3c2CC(=O)N(C)C)cc1 [ZOLPIDEM] | Compound NOT metabolized | Compound metabolized | Compound NOT metabolized | Compound NOT metabolized | Compound NOT metabolized | Compound NOT metabolized | Compound metabolized | Compound metabolized | Compound NOT metabolized | Compound metabolized | Compound NOT metabolized | Compound NOT metabolized | Compound NOT metabolized | Compound NOT metabolized | Compound NOT metabolized | Compound metabolized | Compound metabolized | Compound metabolized | Compound NOT metabolized | Compound metabolized |
